Test results published in article PMC7904806, “A phase I dose-finding, pharmacokinetics and genotyping study of olaparib and lurbinectedin in patients with advanced solid tumors” (Scientific Reports, 2021).
“And” between values parts separate entries of the source, which are not always exact repeats. Equal entries are not always repeated. “Also recorded” adds a separate entry of the source. Where two headings read alike, the source gives them in different places.

Key:
A2780 = assay: MTT cytotoxicity assay, A2780; assay type: cell-based; conditions: A2780, lowest IC50 of the panel
Method: (§1) The following Ovarian Cancer Cell lines were analyzed: TOV112, SKOV-3, OVCAR-3, PEO1, PEO6, PEO4, A2780 and A2780-Cis (an A2780 variant made resistant to platinum), representing the main different molecular subtypes of ovarian cancer (Supplementary Table 6). These cell lines were maintained at 37 °C in 5% CO2 in RPMI‐1640 medium (Sigma‐Aldrich Co.) and DMEM medium (Sigma‐Aldrich Co.), all supplemented with 10% heat‐inactivated FBS (Sigma‐Aldrich Co.). To verify the genetic profile of the cell lines, a characterization of microsatellite markers was carried out (AmpFlSTR Identifiler PCR Amplification Kit, AppliedBiosystem).
(§2) For the pharmacological characterization of the different cell lines, dose–response curves were obtained for lurbinectedin (range between 25 and 0.0343 μM and 100–1.5625 μM dilution factor 3 and 2, respectively) and olaparib (range between […]). […] Cytotoxicity assay was assessed performing six technical replicates and three biological replicates per each curve point.
(§3) For MTT assay, cells were plated and after 24 h of incubation, treated with the drug (lurbinectedin/olaparib) either as a single agent or with both agents simultaneously. […] Finally, the absorbance was measured at 570 nm.

[1] = single-agent, cited from earlier work
[2] = test system: ovarian cancer cell lines; assay: MTT cytotoxicity assay, panel of ovarian cancer cell lines; assay type: cell-based
Method: as §1, §2
Before starting cytotoxicity assays to characterize the chemosensitivity of cell lines to study drugs, different time of exposures and doses were tested in order to establish the most suitable working conditions. […] Regarding olaparib, exposure times were established at 72, 96 and 120 h, measuring absorbance directly after treatment exposure (Supplementary Fig. 10). […]

[3] = Pharmacokinetics in patients, cycle 1 (noncompartmental analysis); assay type: in vivo, human; conditions: for Drug–drug interactions (DDI): combination of lurbinectedin and olaparib
Source text: Blood samples for pharmacokinetic (PK) analyses were collected during cycle 1, with a schedule of ten samples (Supplementary Table 5).
Safety and efficacy population comprised all patients who received at least one dose of the study treatment. Continuous variables were presented with summary statistics and qualitative variables with the absolute and relative frequencies. In those cases where it was necessary to ensure the normality of the continuous parameters, log transformation (or other suitable transformation) was performed. Analysis of Variance (ANOVA) was used for exploratory group comparisons. If Gaussian distribution assumptions (Shapiro–Wilks test) were not met, equivalent nonparametric methods as the Kruskal–Wallis, were performed. Chi-squared or Fisher exact test were used for qualitative parameters. To explore the change in value of a variable, between baseline and week 12 or any other time point, a t-test for paired data or the Wilcoxon signed-rank test was performed, based on the distribution followed by the corresponding variable. All statistical analyses were performed using IBM SPSS Statistics 22 and R v.3.4.3. PK analysis was performed according to the NCA. […] The dose-exposure relationships for Cmax and AUC for lurbinectedin and AUC 0–6 for olaparib will be evaluated and any potential PK interaction between olaparib and lurbinectedin were also explored. The population pharmacokinetics (PopPK) models for each drug was used to detect potential drug–drug interactions based on single agent PopPK models. The potential influence on selected PK parameters of selected demographic and clinical dichotomous variables (gender, laboratory test results above/below selected cutoff values, etc.) was evaluated by Student’s test Mann–Whitney’s U test as appropriate. For multinomial variables, analysis of variance was used. For selected continuous demographic and clinical variables, relationships with selected PK parameters were graphically explored and assessed using correlation and regression methods.
Supplementary Table 5. Sampling schedule for the determination of lurbinectedin and
Sample Time relative to the Sampling times Sampling times PK
number lurbinectedin for lurbinectedin for olaparib window
#1 1 0 min Pre-infusion Pre-dose -10 min to SOI
#2 1 0.5 h 30 min before EOI 30 min after 1st administration ±2 min
#3 1 0.92 h 5 min before EOI 55 min after 1st administration ±2 min
#4 1 1.5 h 30 min after EOI 1.5 h after 1st administration ±5 min
#5 1 3 h 2 h after EOI 3 h after 1st administration ±10 min
#6 1 4.5 h 3.5 h after EOI 4.5 h after 1st administration ±10 min
#7 1 6 h 5 h after EOI 6 h after 1st administration ±10 min
2 24 h after 1st administration
#8 24 h 23 h after EOI (immediately before 3rd olaparib administration) ±2 h
4 72 h after 1st administration
#9 † 72 h 71 h after EOI (immediately before 7th olaparib administration) +24 / -2 h […]

[4] = cited from earlier work
A2780 CIS = assay: MTT cytotoxicity assay, A2780 CIS; assay type: cell-based; conditions: A2780cis, lowest IC50 of the panel
Method: as §1, §2, §3

Structure (SMILES): COc1ccc2[nH]c3c(c2c1)CCN[C@]31CS[C@@H]2c3c(OC(C)=O)c(C)c4c(c3[C@H](COC1=O)N1[C@@H]2[C@H]2c3c(cc(C)c(OC)c3O)C[C@@H]([C@@H]1O)N2C)OCO4 [lurbinectedin]
- IC50 (A2780): 0.46 nM
- Grade 3–4 neutropenia ([1]; dose adjusted to body surface area ref 23): 57%
- Grade 3–4 neutropenia ([1]; flat dose ref 21): up to 85%
- IC50 reached after 1 h exposure ([2]; 1 h exposure, viability at 72 h): not enough to reach the IC50 value
- IC50 ([2]; all cell lines except OVCAR3, 72 h exposure): < 1 nM
- Drug–drug interactions (DDI) [3]: did not observe any potential drug–drug interactions; also recorded: no drug interactions
- Mean lurbinectedin CL ([3]; highest olaparib DL (250 mg BID)): 12 L/h
- Lurbinectedin CL variability ([3]; lurbinectedin 1 mg/m^2): 92%
- Lurbinectedin CL, one patient with high CL ([3]; lurbinectedin 1 mg/m^2): 37 L/h
- Lurbinectedin CL variability ([3]; lurbinectedin 1.5 mg/m^2): 36%
- Lurbinectedin CL variability ([3]; lurbinectedin 2 mg/m^2): 52%
- Lurbinectedin CL variabilities ([3]; olaparib 200 and 250 mg BID, lurbinectedin 1.5 and 2 mg/m^2): ~36%
- Mean lurbinectedin clearance (CL) ([3]; three lurbinectedin DLs, with olaparib): ~12 L/h
- Mean lurbinectedin CL as single-agent ([4]; single-agent ref 25): 12 L/h

Structure (SMILES): O=C(c1cc(Cc2n[nH]c(=O)c3ccccc23)ccc1F)N1CCN(C(=O)C2CC2)CC1 [olaparib]
- IC50 (A2780 CIS): 2900 nM
- Olaparib PK parameters by lurbinectedin DL ([3]; NCA): did not show differences
- Drug–drug interactions (DDI) [3]: no drug interactions
- clearance ([3]; human, blood, oral, olaparib 100 mg, read-out: Olaparib CL (converted)): 50 mL/min
- clearance ([3]; human, blood, oral, olaparib DLs above 100 mg, read-out: Olaparib CL (converted)): 100 to 167 mL/min
- half-life ([3]; human, in vivo, oral, this trial, NCA samples until 6 h, read-out: Olaparib terminal half-life (converted)): 180 min
- clearance ([3]; human, in vivo, oral, this trial, read-out: Mean olaparib total body clearance (converted)): 117 mL/min
- Olaparib total body clearance ([4]; literature ref 31): 5.1 L/h and 8.6 L/h
